According to patent US5484793A, “Compounds derived from 6-azaindoles as ligands of the benzodiazepine receptor and medicaments containing them” (Centre National de la Recherche Scientifique (CNRS), priority 1991, dated 1996):
Where two headings read alike, the source gives them in different places.

Tests used:
benzodiazepine receptor [1] = settings: in vitro; cited from earlier work
[2] = test system: GABA receptor/benzodiazepine receptor/chloride channel complexes; assay: Electrophysiological test on Xenopus oocyte (injected with chicken optical lobe mRNA), pharmacological profile; format: cell-based; settings: for change of the potential difference (PD) of the oocyte: 10^-6 M, in 10^-5 M GABA bath; for pharmacological profile at the benzodiazepine receptor: Xenopus oocyte
Source text: B--Pharmacological Property of the Compound of Example 1 Determination of the Pharmacological Profile
This study consists of an electrophysiological test on Xenopus oocyte. The cells of chicken optical lobes fortuitously have a good response to GABA. The total RNAs are extracted therefrom and passed through an oligo(dT) affinity column, thus making it possible to separate the crude messenger RNAs therefrom, because the latter have a poly(A) end tail which will combine by complementarity with the oligo(dT) residues of the column. These messenger RNAs will then be injected into a Xenopus oocyte, which is only a one and only cell. These oocytes will then be incubated and, in two days, the messenger RNAs will be expressed and will thus, by virtue of the cell machinery of the oocyte, have produced GABA receptor/benzodiazepine receptor/chloride channel complexes. These large protein entities will then migrate in the cell and will reach the membrane, thus making it possible for this receptor and the transmembrane ion channel which is combined with it to take its place.
The oocyte is then placed in a 10^-5 M GABA bath in Ringer solution and two microelectrodes A and B are introduced therein, a third microelectrode being placed outside the cell to act as reference. Microelectrode A will be used to measure the potential difference (PD) between the interior and the exterior of the oocyte. A PD of 60 mV is imposed on the oocyte and the microelectrode B will be used to maintain this desired PD.
By perfusing an agonist such as diazepam, the latter and the GABA present in the medium will exert an allosteric effect at the level of the receptor with, as corollary, opening of the ion channel. There will therefore be entry of chloride into the oocyte and the PD will greatly increase. On the other hand, an inverse agonist such as β-CCM will cause a reduction in the binding of the GABA to the receptor with, as consequence, a reduction in the time of opening of the chloride channel and a lower PD.
An antagonist will occupy the binding site of the benzodiazepine receptor but will have no effect on the binding of the GABA. The opening of the chloride channel will therefore not be disturbed and the PD will not vary.

[3] = test system: mice belonging to the ABP/Le strain; assay: In vivo convulsant properties in ABP/Le mice; parameters: species or system mouse; settings: 20 mg/kg intraperitoneally, 14 mice, observation after 30 minutes
Procedure: Compound 1 was tested first for its convulsant properties. The test was carried out on 14 mice (5 males and 9 females) aged two months belonging to the ABP/Le strain. This particular strain is very sensitive to convulsions induced by β-carbolines. Compound 1 was administered intraperitoneally at a dose of 20 mg/kg and observation took place after 30 minutes. […] The compound is therefore not convulsant.

benzodiazepine receptor [4] = assay: In vitro affinity for the benzodiazepine receptor on rat cortex membrane; format: binding
Procedure: A--In Vitro Tests on Cortex Membrane
The compounds of Examples 1 to 14 were tested on rat cortex membrane in order to determine their affinity for the benzodiazepine receptor.

female Swiss mice = assay: Passive avoidance test with learning in a single test (memory); format: in vivo, mouse; settings: 20 mg/kg intraperitoneal
Procedure: Compound 1 was then tested on learning. This test, passive avoidance with learning in a single test, was carried out on 30 female Swiss mice aged two months. Compound 1 was administered to 15 mice at a dose of 20 mg/kg, the other 15 receiving an injection of physiological serum.
The equipment consists of a white box connected to a black box by a door. The white box is lit by a 100 W lamp placed at a distance of 25 cm and the black box, into which the mouse will spontaneously go because she feels safe in the darkness, contains an electrified metal floor. The boxes are coated with the smell of mice by an animal placed inside before each of the two series of 15 mice. […]
Ten minutes before learning, the marked mice receive an intraperitoneal injection of physiological serum or of Compound 1. […] The mice were then placed one by one in the illuminated white box and the arrival time in the black box is recorded. […]
After 24 hours, the avoidance test takes place: the mouse is placed in the white box and whether or not the mouse enters the black box in three minutes is recorded without any electrical shock being caused. If the mouse enters the black box in less than three minutes, the molecule tested has not improved the acquisition of the information "black box=electric shock" but if the time recorded is greater than three minutes, the molecule is assumed to have acted.

benzodiazepine receptor [5] = settings: cited from earlier work
man = settings: cited from earlier work
[6] = in vivo (anxiolytic, anticonvulsant, and the like); cited from earlier work
[7] = molecular target: central receptors of benzodiazepines; settings: in vitro, rat brain; read-out: IC50 at central benzodiazepine receptors; cited from earlier work
mice = settings: facilitating convulsions caused by other agents such as pentylenetetrazole; cited from earlier work
[8] = in vivo; cited from earlier work
[9] = in vivo; cited from earlier work; remark: listed apart in the source

CCOC(=O)c1cc2cc(C(=O)OCC)[nH]c2cn1 [2,5-dicarbethoxy-6-azaindole]
IC50 (benzodiazepine receptor [1]): 84 µM

COC(=O)c1cc2c(COCc3ccccc3)c[nH]c2cn1 [Example 1, Methyl 3-Benzyloxymethyl-6-Azaindole-5-Carboxylate]
change of the potential difference (PD) of the oocyte [2]: slight reduction of the PD | pharmacological profile at the benzodiazepine receptor [2]: partial inverse agonist | convulsions [3]: None of the mice showed the least convulsion | IC50 (benzodiazepine receptor [4]): 0.75 µM | memory-enhancing effect during the passive avoidance test (female Swiss mice): memory-enhancing effect of the compound during the passive avoidance test with learning in a single test has therefore been revealed | animals treated with the molecule that learnt to avoid the electric shock (female Swiss mice; 24 hours): 75%

COCc1c[nH]c2cnc(C(=O)OC)cc12 [Example 2]
IC50 (benzodiazepine receptor [4]): 1.5 µM

COC(=O)c1cc2c(COCc3ccccc3F)c[nH]c2cn1 [Example 3]
IC50 (benzodiazepine receptor [4]): 0.065 µM

COC(=O)c1cc2c(COCc3cccc(F)c3)c[nH]c2cn1 [Example 4]
IC50 (benzodiazepine receptor [4]): 0.1 µM

COC(=O)c1cc2c(COCc3ccc(F)cc3)c[nH]c2cn1 [Example 5]
IC50 (benzodiazepine receptor [4]): 0.075 µM

COC(=O)c1cc2c(COCc3ccccc3[N+](=O)[O-])c[nH]c2cn1 [Example 6]
IC50 (benzodiazepine receptor [4]): 1.2 µM

COC(=O)c1cc2c(COCc3cccc([N+](=O)[O-])c3)c[nH]c2cn1 [Example 7]
IC50 (benzodiazepine receptor [4]): 1.3 µM

COC(=O)c1cc2c(COCc3ccc([N+](=O)[O-])cc3)c[nH]c2cn1 [Example 8]
IC50 (benzodiazepine receptor [4]): 0.3 µM

COC(=O)c1cc2c(COCc3cccc(OC)c3)c[nH]c2cn1 [Example 9]
IC50 (benzodiazepine receptor [4]): 10 µM

COC(=O)c1cc2c(COCCc3ccccc3)c[nH]c2cn1 [Example 10]
IC50 (benzodiazepine receptor [4]): 0.008 µM

COC(=O)c1cc2c(COCC=Cc3ccccc3)c[nH]c2cn1 [Example 11]
IC50 (benzodiazepine receptor [4]): 0.15 µM

O=C(Nc1ccccc1C(=O)O)c1cc2cc[nH]c2cn1 [Example 12, 5-Phenylamido-6-Azaindole-2'-Carboxylic Acid]
IC50 (benzodiazepine receptor [4]): 0.3 µM

O=C(Nc1ccccc1)c1cc2cc[nH]c2cn1 [Example 13]
IC50 (benzodiazepine receptor [4]): 7 µM

O=C(O)c1cccc(NC(=O)c2cc3cc[nH]c3cn2)c1 [Example 14]
IC50 (benzodiazepine receptor [4]): 5.5 µM

O=C(O)c1ccc(NC(=O)c2cc3cc[nH]c3cn2)cc1 [Example 15]
IC50 (benzodiazepine receptor [4]): 2.3 µM

CCOC(=O)c1ncn2c1CN(C)C(=O)c1cc(F)ccc1-2 [Flumazenil]
functional class at the benzodiazepine receptor (benzodiazepine receptor [5]): antagonists of the benzodiazepine receptor | memory-enhancing properties in man (man): memory-enhancing properties were revealed

CCOC(=O)c1ncc2[nH]c3cccc(OCc4ccccc4)c3c2c1COC [ZK 91296]
pharmacological profile at the benzodiazepine receptor [2]: partial agonist | in vivo properties compared with diazepam [6]: properties analogous to those of diazepam in vivo (anxiolytic, anticonvulsant, and the like)

CCOC(=O)c1ncc2[nH]c3ccc(OCc4ccccc4)cc3c2c1COC [ZK 93423]
in vivo properties compared with diazepam [6]: properties analogous to those of diazepam in vivo (anxiolytic, anticonvulsant, and the like)

CCOC(=O)c1ncc2[nH]c3cccc(OC(C)C)c3c2c1C [ZK 93426]
functional class at the benzodiazepine receptor (benzodiazepine receptor [5]): antagonists of the benzodiazepine receptor | memory-enhancing properties in man (man): memory-enhancing properties were revealed

CN1C(=O)CN=C(c2ccccc2)c2cc(Cl)ccc21 [diazepam]
change of the potential difference (PD) of the oocyte [2]: great increase

CCOC(=O)c1cc2c(cn1)[nH]c1ccccc12 [β-CCE, ethyl ester of β-carboline-3-carboxylic acid]
IC50 [7]: 0.004 µM | proconvulsant effect (mice): proconvulsant in mice

COC(=O)c1cc2c(cn1)[nH]c1ccccc12 [β-CCM]
change of the potential difference (PD) of the oocyte [2]: significant reduction | functional class at the benzodiazepine receptor (benzodiazepine receptor [5]): inverse agonists of the benzodiazepine receptor | effect on learning and memory [8]: positive effect on learning and memory | convulsant activity [9]: highly convulsant activity
